Experimental findings from ChEMBL document CHEMBL1133289, “The binding of cocaine to cyclodextrins” (Bioorg Med Chem Lett, 2000) are described below.

The nature of test [1]: Binding constant towards Beta-cyclodextrin.
The nature of test [2]: Binding constant towards alpha-cyclodextrin.
Test [3] is described as follows: (§1) Binding constant towards Beta-cyclodextrin at pH 7.4 in unbuffered water at 25 C in a one-to-one complex.
The nature of test [4]: as §1. This is another data set of the same source.
Test [5] can be described thus: Binding constant towards gamma-cyclodextrin.

For `CN1[C@@H]2CC[C@H]1C[C@H](OC(=O)c1ccccc1)C2` (stereo in doubt; 8), the Binding constant in test [1] is 1120 M⁻¹.
Turning to `CN1[C@@H]2CC[C@H]1C[C@H](OC(=O)c1ccccc1)C2` (stereo in doubt; 9), the Binding constant in test [1] stood at 500 M⁻¹.
Usually Kd stands for a measure of binding affinity in units of concentration. As to `COC(=O)[C@H]1[C@@H](OC(=O)c2ccccc2)C[C@@H]2CC[C@H]1N2C` [COCAINE], the Binding constant in test [2] is under 60 M⁻¹; in test [3], 570 M⁻¹; in test [5], under 60 M⁻¹. This compound also returned a Kd in test [4] of 1750 µM.
